The values below come from patent US5670520A, “Method for inhibiting virus replication in mammalian cells using carbostyil derivatives” (Otsuka Pharmaceutical Co., Ltd., priority 1996, dated 1997).

Where two headings read alike, the source gives them in different places.

In data set [1] the test system is human T cells. Kind of data set: 30 min [3H]thymidine, [3H]uridine and [3H]amino acid incorporation. The class given is cell-based. Conditions: 30 min label, 250 μM vesnarinone. As for the experimental part: Next, the PHA-stimulated T cells were labelled for 30 min with 5.0 μCi/ml of an [^3 H]amino acid mixture (1.0 mCi/ml, Amersham, Arlington Heights, Ill.), washed twice with ice-cold PBS, and then lysed in PBS containing 1.0% (w/v) SDS, followed by addition of a mixture of 7.0% (w/v) trichloroacetic acid and 1.0% (w/v) pyrophosphate. The precipitates were loaded on GF/A filters, and washed extensively with a mixture of 7.0% (w/v) trichloroacetic acid and 1.0% (w/v) pyrophosphate. Radioactivity was measured by scintillation counting.

The subject of data set [2] is EBV. Kind of data set: In situ hybridization of EBV DNA in anti-IgG stimulated DMSO-released Akata cells. The class given is cell-based, Epstein-Barr virus. Conditions: 20 hrs after 50 μg/ml anti-IgG; vesnarinone 0-100 μg/ml; acyclovir pretreatment. How it is done:
The human Burkitt's lymphoma cell line, Akata, provided by Dr. Kenzo Takada (Takada, Int. J. Cancer, 33:27-32 (1984); and Takada et al, Virus Genes, 5:147-156 (1991)), was cultured at 37° C. in RPMI 1640 medium supplemented with 15% (v/v) heat-inactivated FCS, and 20 μg/ml gentamicin.
The cell progression of Akata cells was arrested by culturing of the cells for 96 hrs in the presence of 1.5% (y/v) DMSO (Sigma, St. Louis, Mo.) (Sawai et al, Exp. Cell Res., 187:4-10 (1990); and Takase et al, Cell Growth Differ., 3:515-521 (1992)).
1 hr after transfer (release from DMSO), a goat F(ab')2 fragment of anti-human IgG antibody (Organon Teknika, Durham, N.C.) was added at a concentration of 50 μg/ml to induce productive EBV replication (Takagi et al, Virology, 185:309-315 (1991)).
3 hrs and 20 hrs after treatment with the anti-IgG, the cells were harvested for flow cytometric detection of the BamHI Z replication activator (ZEBRA), and for in situ detection of EBV DNA, respectively. […]
More specifically, cells coated on a glass slide were fixed in acetone at room temperature for 10 min. […] Positivity for EBV DNA was determined by the presence of red-colored grains and at least 1000 cells were examined under light microscopy. […]

For data set [3], the system named is MRC5 cells. The data set can be described thus: MTT cell viability of MRC5 cells. The class given is cell-based. How it is done: (§1) More specifically, 5.0 μg/ml of MTT in Eagles MEM supplemented with 2.0% (v/v) fetal bovine serum was added to each well, and incubated at 37° C. for 6 hr. The cells were then solubilized by adding 30% (w/v) SDS in 0.02N HCl. The cultures were incubated overnight at 37° C. Then, the optical density was measured at 570 nm on a spectrophotometer.

A short description of data set [4]: MTT cell viability of MRC5 cells. Conditions: human, mrc5 cells, read-out: MTT Cell Viability (% of control). The class given is cell-based. As for the experimental part: as §1
Data set [5] relates to primary human T lymphocytes. Kind of data set: Rapid uptake of [3H]thymidine / [3H]AZT in PHA-activated human T cells. As to conditions: 0-250 μM vesnarinone, 1 min.
Description: Human PBMC were obtained by leukopheresis of HIV-1 and HBV Zeronegative healthy donors. Mononuclear cell suspensions were prepared therefrom by Ficoll-Hypaque gradient centrifugation, and the T cells were obtained therefrom by E-rosette enrichment as described by Terada et al, J. Immunol., 147:698-704 (1991).
Then, 1.0 μCi/ml of [^3 H]thymidine (6.7 Ci/mmol) or 1.0 μCi/ml of [^3 H]AZT (14 Ci/mmol) was added, and the mixture was immediately layered on silicone oil/paraffin oil (96:6) in microfuge tubes. […] The water and oil phases were discarded, and radioactivity of the cell pellets was measured using liquid scintillation counting.
Data set [6] concerns thymidine kinase. Kind of data set: Thymidine kinase assay, vesnarinone added in vitro. The class given is biochemical. Conditions: vesnarinone up to 100 μg/ml. How it is done:
5.0 μl of the kinase extract was incubated at 37° C. with 35 µl of kinase reaction buffer comprising 150 mM phosphate (pH 7.5), 20 mM ATP, 20 mM MgCl2, 40 mM KCl, 1.0 mM DTT, 10 mM NaF and 20 μM [^3 H]thymidine (6.7 Ci/mmole, ICN) for 5 or 15 min. The reaction was terminated by placing on ice, and an addition of 4.0 μl of 0.5M EDTA (pH 8.0). For measurement of dTTP-resistant thymidine kinase activity, a kinase reaction buffer additionally containing 100 μM dTTP (Pharmacia) was used.
The amount of phosphorylated [^3 H]thymidine derivatives formed during the reaction was determined by applying the reaction mixtures onto Whatman DE-81 paper filters, which were then washed four times in 1.0 mM ammoniumformate (pH 8.0), and once in ethanol before drying and liquid scintillation counting.

For data set [7] the following is noted: cited from earlier work.
For data set [8], the system named is MRC5 cells. The data set can be described thus: Microscopic evaluation of cytotoxicity in MRC5 cells. The class given is cell-based. As to conditions: vesnarinone up to 31 μg/ml, alone or with DHPG.
Data set [9] deals with human T cells. The data set can be described thus: Cell numbers of PHA-stimulated human T cells over 120 hrs. As to conditions: 10 μg/ml PHA, 0-120 hrs; 250 μM vesnarinone, 15 nM aphidicolin or 100 μM deferoxamine. The class given is cell-based. How it is done:
Next, the effects of the above-described drugs on cell proliferation were evaluated over a period of 120 hrs.

Data set [10] concerns EBV. The data set can be described thus: Productive replication of EBV in growing Akata cells (in situ hybridization). The class given is cell-based, Epstein-Barr virus. As to conditions: for positivity for EBV DNA: 20 μg/ml vesnarinone. As for the experimental part:
1 hr later, anti-IgG was added to the cultures at a final concentration of 50 μg/ml, and the cells were harvested for in situ hybridization of EBV DNA 24 hrs later as described above.

With `COc1ccc(C(=O)N2CCN(c3ccc4c(c3)CCC(=O)N4)CC2)cc1OC` [vesnarinone, 3,4-dihydro-6-[4-(3,4-dimethoxybenzoyl)-1-piperazinyl]-2(1H)-quinoline], the “[3H]amino acid incorporation” value in data set [1] is “did not inhibit [^3 H]amino acid incorporation”. Moreover, in data set [1] (15 nM aphidicolin or 100 μM deferoxamine), the “[3H]uridine incorporation, brief exposure” value was “rapidly inhibited [^3 H]uridine incorporation”. For the same compound, in data set [2], the “population of EBV producing cells (positivity for EBV DNA)” value is recorded as “gradually decreased in the presence of vesnarinone in a dose-dependent manner”. Further, the “MTT Cell Viability (% of control)” value in [3] (vesnarinone 3.88 μg/ml alone) is 100 % of control; in data set [3] (vesnarinone 7.75 μg/ml alone), 98 % of control; in [3] (vesnarinone 15.5 μg/ml alone) it was 98 % of control; in [3] (vesnarinone 31 μg/ml alone), 90 % of control. In addition, the “cytotoxicity by MTT” value in [3] (vesnarinone 3.88-31 μg/ml, alone or with DHPG 0.625-5.000 μM) is on record as “little or no cytotoxicity was observed”. The viability in [4] (vesnarinone 3.88 μg/ml alone) amounted to 100%; in [4] (vesnarinone 7.75 μg/ml alone), 98%; in data set [4] (vesnarinone 15.5 μg/ml alone), 98%; in [4] (vesnarinone 31 μg/ml alone), 90%. For the same compound, the “uptake of [3H]AZT” value in data set [5] was “the uptake of [^3 H]AZT was not affected by vesnarinone”. Also, the “uptake of [3H]thymidine” value in data set [5] is “inhibits the uptake of [^3 H]thymidine in a dose-dependent manner”. Further, the “thymidine kinase activity, drug added to in vitro assay” value in [6] is “did not display any inhibition of the thymidine kinase activity”. The “therapeutic range in vivo” value in data set [7] was 2 to 80 µM. In addition, the “cytotoxicity by microscopic evaluation” value in data set [8] was “No cytotoxicity was observed”. Moreover, in [9], the “cell proliferation (cell number)” value is recorded as “inhibited cell proliferation when compared to control cultures, but increases in cell number were nonetheless observed”. In data set [10] (20 μg/ml vesnarinone only concurrently with anti-IgG treatment), the EBV production entry is recorded as “displayed a more profound reduction of EBV production”. The “positivity for EBV DNA” value is given as “the degree of positivity for EBV DNA was higher” in data set [10] (pre-treatment alone (7 days)) and “reduced the level of positivity for EBV DNA compared to untreated cells” in [10] (pre-treatment+post-treatment or solely post-treatment).

As usually defined, the viability is a per cent measure of how many cells are alive, often set against a control.
